Assay [1] deals with estrogen receptor (ER)-mediated transcriptional activity. As to the kind of experiment: Inhibition of estrogen receptor (ER) signaling, ERE-tk-luc transfection assay in MCF-7 cells. It is filed as cell-based. Particulars: Homo sapiens, MCF7, ERE-tk-luc luciferase readout, 24 h. As to the method: To determine the effect of the compounds on estrogen receptor (ER)-mediated transcriptional activity a transfection assay using the MCF-7 cell line was performed. A luciferase-coupled ERE-tk-luc construct was obtained from Dr. G. Reid (EMBL).
In brief, MCF-7 cells were maintained as described previously and seeded on the first experimental day at a concentration of 3500 cells/well in 100 μl medium and incubated under standard conditions for 24 h. Following this initial incubation period, transfection was carried out using 5 ng of the ERE-tk-luc construct (per well) and Exgene 500 transfection reagent (Fermentas) in a final buffered solution containing 150 mM NaCl and 20 mM Tris pH 8.4. The plates were then maintained for 3-4 hours until cell culture conditions in the incubator before compounds were added at 11× concentrations to yield the final desired compound concentrations in 0.5% DMSO (in the same manner as for the proliferation assays described previously).
After an additional 24 h incubation period the degree of inhibition of ER-signaling was determined via a luciferase readout. Cells were treated with Britelite™ plus solution according to the manufacturer's instructions (PerkinElmer, britelite plus, Ultra-High Sensitivity Luminescence Reporter Gene Assay System) and luciferase levels measured on an Envision HTS multilabel plate reader (PerkinElmer) in luminescence mode according to established protocols. Raw data were imported into an ActivityBase database (IDBS, ID Business Solutions) and IC50 values calculated using the IDBS program ActivityBase XE.

The subject of another assay is MCF7 cells. The experiment in a line: Cell proliferation assay (ATPlite), MCF-7. The format is cell-based, human. Particulars: inhibition of cell proliferation, 72 h. The protocol: MCF-7 human breast adenocarcinoma cells and HL-60 acute promyelocytic leukaemia cells were obtained from ATCC (LGC Promochem). HG-1 multiple myeloma cells were obtained from Dr. D. Hose (DKFZ Heidelberg). The CellSensor® HRE-bla HCT116 cell line (colorectal carcinoma) was obtained from Invitrogen.
Cells were grown under humidified 95% air, 5% CO2 at 37° C. in Dulbecco's modified Eagle's medium (DMEM: MCF-7) or RPMI 1640 medium (RPMI: HL-60, HG-1) supplemented with 10% fetal bovine serum (FBS), 100 U/ml penicillin and 100 μg/ml streptomycin, 2 mM L-glutamine, and 2 ng/ml IL-6 (for the HG-1 cell line only). The HCT116 cell line was grown under the same atmospheric conditions in McCoy's 5A medium supplemented with 10% FBS and penicillin/streptomycin as above, in addition to blasticidin as a selection marker at a final concentration of 5 μg/ml.
Cell proliferation experiments were carried out in 96-well tissue culture plates with seeding of 2000 cells/well (MCF-7) or 1000 cells/well (HL-60, HG-1) in 100 μl of the relevant medium. Cells were subsequently incubated under the conditions mentioned for 24 h prior to addition of compounds.
For the determination of compound EC50 values, 10 μl compounds at 11× concentrations in 5.5% DMSO were added to the wells at various concentrations yielding a final constant percentage of 0.5% DMSO at the desired 1× compound concentration. As a positive control, cells were treated with 5.5% DMSO. The cells were then incubated for a further 72 h prior to the measurement.
To determine the degree of inhibition of cell proliferation, cells were treated with ATPlite solution according to the manufacturer's instructions (PerkinElmer, ATPlite 1-step Luminescence ATP Detection Assay System) and luciferase readout measured on an Envision HTS multilabel plate reader (PerkinElmer) in luminescence mode according to established protocols. Raw data were imported into an ActivityBase database (IDBS, ID Business Solutions) and EC50 values calculated using the IDBS program ActivityBase XE. Table 2A and 2B show the IC50 values obtained in the above-outlined cell proliferation assay for exemplary compounds of the invention.
In general terms: ATP-based viability assays read luminescence as a measure of living cells.

Assay [2] concerns HIF mediated transcription. The experiment in a line: Inhibition of activation of HIF mediated transcription under hypoxic conditions (CellSensor HRE-bla HCT-116). The format is cell-based. Particulars: Homo sapiens; HRE-bla HCT-116 cells, deferoxamine-induced hypoxia, 24 h. As to the method:
Inhibition of an activated HIF signaling response under chemically-induced hypoxic conditions due to compound treatment was determined using the CellSensor® HRE-bla HCT-116 stably transfected reporter cell line from Invitrogen according to the manufacturer's instructions. HIF is a transcriptional factor composed of the constitutively expressed HIF1β subunit and one of three HIFα subunits (HIF1α, HIF2α, HIF3α). This assay is responsive towards HIFa activity in general. In one example, HIF-1, when stabilized by hypoxic conditions, upregulates several genes to promote cell survival in low-oxygen conditions. These include glycolysis enzymes, which allow ATP synthesis in an oxygen-independent manner, and vascular endothelial growth factor (VEGF), which promotes angiogenesis. HIF-1 acts by binding to HIF-responsive elements (HREs) in promoters that generally contain the sequence NCGTG.
Cells were maintained as described previously and seeded into 384-well, clear-bottom plates (Corning 3712) at 15000 cells/well in 32 μl assay medium (Opti-MEM [Invitrogen], 0.5% FBS, 100 U/ml penicillin, 100 μg/ml streptomycin, 0.1 mM non-essential amino acids [NEAA], 1 mM sodium pyruvate, 5 mM HEPES [pH 7.3]). Following a 2 h incubation period, compounds (4 μl) were subsequently added to the cells at 10× concentrations in 5% DMSO and incubated under normal conditions for 30 min. To induce hypoxic conditions, 4 μl of a 2 mM deferoxamine (DFO) solution was added to the cells followed by 24 h incubation under standard assay conditions (as described). Control wells included wells containing only medium (no cells) and wells treated with 0.5% DMSO instead of compound.
Prior to the readout, the Substrate Loading Solution was prepared as described in the manufacturer's protocol and 10 μl added to each well. Following a further 2 h incubation period at room temperature and in the dark, fluorescence was measured at two wavelengths (blue channel: ex. 409 nm, em. 460 nm; green channel: ex. 409 nm, em. 530 nm) on a PerkinElmer Envision HTS. For the analysis, the average signal of the cell-free wells at 460 nm and 530 nm was first subtracted from the blue and green channel data, respectively. The blue/green emission ratios were then calculated for each well, dividing the background-corrected blue emission values by the background-corrected green emission values. IC50 values were determined from these ratios using GraphPad Prism (Prism 5, GraphPad software, Inc.).

This note sets out measurements from patent publication US20120095024A1, “TOLUIDINE SULFONAMIDES AND THEIR USE” (Elara Pharmaceuticals GmbH, priority 2008, published 2012).

Regarding `Cc1ccc(S(=O)(=O)Nc2cc(-c3ccco3)ccc2C)cc1` [Example 4, N-(5-Furan-2-yl-2-methyl-phenyl)-4-methyl-benzenesulfonamide], the concentration for half-maximal inhibition (IC50) (in general, the concentration needed to halve the response being measured) in assay [1] is < 500 nM. Moreover, the EC50 (as a rule, the midpoint of the concentration-response curve) with MCF7 cells (Homo sapiens) is < 500 nM.

In the case of `Cc1ccc(S(=O)(=O)Nc2cc(-c3csc(C#N)c3)ccc2C)cc1` [Example 68, N-[5-(5-Cyano-thiophen-3-yl)-2-methyl-phenyl]-4-methyl-benzenesulfonamide], the EC50 (in the assay on MCF7 cells (Homo sapiens); in assay [2]) was < 500 nM throughout.

Regarding `Cc1ccc(S(=O)(=O)Nc2cc(-c3ccc(C#N)c(F)c3)ccc2C)cc1` [Example 71, N-(4′-Cyano-3′-fluoro-4-methyl-biphenyl-3-yl)-4-methyl-benzenesulfonamide], the EC50 (with MCF7 cells (Homo sapiens); in assay [2]) was < 500 nM each time.

Consider `Cc1ccc(S(=O)(=O)Nc2cc(-c3csc(C#N)c3)ccc2C)cc1F` [Example 95, N-(5-(5-cyanothiophen-3-yl)-2-methylphenyl)-3-fluoro-4-methylbenzenesulfonamide], for which the EC50 (in the assay with MCF7 cells (Homo sapiens); in assay [2]) was < 500 nM each time.

In the assay on MCF7 cells (Homo sapiens), `Cc1ccc(-c2ccc(C#N)s2)cc1NS(=O)(=O)c1ccc(O)cc1` [Example 98, N-(5-(5-cyanothiophen-2-yl)-2-methylphenyl)-4-hydroxybenzenesulfonamide] returned an EC50 of 500 to 1000 nM.

Consider `COc1cc(-c2ccc(C)c(NS(=O)(=O)c3ccc(C)c(F)c3)c2)ccc1C#N` [Example 99, N-(4′-cyano-3′-methoxy-4-methylbiphenyl-3-yl)-3-fluoro-4-methylbenzenesulfonamide], for which the EC50 in the assay on MCF7 cells (Homo sapiens) was < 500 nM.

In the assay on MCF7 cells (Homo sapiens), `Cc1ccc(-c2ccc(C#N)cc2)cc1NS(=O)(=O)c1ccc(O)cc1` [Example 100, N-(4′-cyano-4-methylbiphenyl-3-yl)-4-hydroxybenzenesulfonamide] had a half-maximal effective concentration (EC50) of 1000 to 10000 nM.

In turn, `COc1cc(-c2ccc(C)c(NS(=O)(=O)c3ccc([N+](=O)[O-])cc3)c2)ccc1C#N` [Example 101, N-(4′-cyano-3′-methoxy-4-methylbiphenyl-3-yl)-4-nitrobenzenesulfonamide] showed a half-maximal effective concentration (EC50) in the assay on MCF7 cells (Homo sapiens) of 1000 to 10000 nM.

With `COc1cc(-c2ccc(C)c(NS(=O)(=O)c3ccc(N)cc3)c2)ccc1C#N` [Example 102, 4-amino-N-(4′-cyano-3′-methoxy-4-methylbiphenyl-3-yl)benzenesulfonamide], the EC50 with MCF7 cells (Homo sapiens) is < 500 nM.

`COc1ccc(S(=O)(=O)Nc2cc(-c3ccc(C#N)c(OC)c3)ccc2C)cc1F` [Example 103, N-(4′-cyano-3′-methoxy-4-methylbiphenyl-3-yl)-3-fluoro-4-methoxybenzenesulfonamide]: the EC50 (with MCF7 cells (Homo sapiens); in assay [2]) was < 500 nM throughout.

Regarding `Cc1ccc(-c2ccc(C#N)cc2)cc1NS(=O)(=O)c1cccc(F)c1` [Example 104, N-(4′-cyano-4-methylbiphenyl-3-yl)-3-fluorobenzenesulfonamide], the EC50 in the assay with MCF7 cells (Homo sapiens) was in the range of 1000 to 10000 nM.

Compound `Cc1ccc(-c2ccc(C#N)cc2)cc1NS(=O)(=O)c1ccc([N+](=O)[O-])c(F)c1` [Example 105, N-(4′-cyano-4-methylbiphenyl-3-yl)-3-fluoro-4-nitrobenzenesulfonamide] gave an EC50 in the assay with MCF7 cells (Homo sapiens) of 1000 to 10000 nM.

Compound `Cc1ccc(S(=O)(=O)Nc2cc(-c3ccc(N)cn3)ccc2C)cc1` [Example 106, N-(5-(5-aminopyridin-2-yl)-2-methylphenyl)-4-methylbenzenesulfonamide] displayed an EC50 in the assay on MCF7 cells (Homo sapiens) of 1000 to 10000 nM.

As for `COc1nccc(-c2ccc(C)c(NS(=O)(=O)c3ccc(C)cc3)c2)n1` [Example 107, N-(5-(2-methoxypyrimidin-4-yl)-2-methylphenyl)-4-methylbenzenesulfonamide], the EC50 with MCF7 cells (Homo sapiens) lay in the range of 1000 to 10000 nM.

As to `COc1ccc(S(=O)(=O)Nc2cc(-c3ccc(C#N)s3)ccc2C)cc1OC` [Example 108, N-(5-(5-cyanothiophen-2-yl)-2-methylphenyl)-3.4-dimethoxybenzenesulfonamide], in the assay with MCF7 cells, the EC50 was in the range of 500 to 1000 nM.

With `COc1ccc(S(=O)(=O)Nc2cc(-c3ccc(C#N)s3)ccc2C)cc1C` [Example 109, N-(5-(5-cyanothiophen-2-yl)-2-methylphenyl)-4-methoxy-3-methylbenzenesulfonamide], the EC50 with MCF7 cells (Homo sapiens) was < 500 nM.

For the compound `Cc1ccc(-c2ccc(C#N)cc2)cc1NS(=O)(=O)c1ccc(N)c(F)c1` [Example 110, 4-amino-N-(4′-cyano-4-methylbiphenyl-3-yl)-3-fluorobenzenesulfonamide], in the assay with MCF7 cells (Homo sapiens), the EC50 is < 500 nM.

Regarding `Cc1ccc(S(=O)(=O)Nc2cc(-c3ccc([N+](=O)[O-])c(C)n3)ccc2C)cc1` [Example 111, 4-methyl-N-(2-methyl-5-(6-methyl-5-nitropyridin-2-yl)phenyl)benzenesulfonamide], the EC50 in the assay on MCF7 cells (Homo sapiens) was < 500 nM.

In the case of `Cc1cc(S(=O)(=O)Nc2cc(-c3ccc(C#N)s3)ccc2C)ccc1F` [Example 112, N-(5-(5-cyanothiophen-2-yl)-2-methylphenyl)-4-fluoro-3-methylbenzenesulfonamide], the EC50 (in the assay on MCF7 cells (Homo sapiens); in assay [2]) was < 500 nM in each case.

Turning to `COc1cc(S(=O)(=O)Nc2cc(-c3ccc(C#N)s3)ccc2C)ccc1F` [Example 113, N-(5-(5-cyanothiophen-2-yl)-2-methylphenyl)-4-fluoro-3-methoxybenzenesulfonamide], in the assay with MCF7 cells (Homo sapiens), the EC50 lay within 500 to 1000 nM.

`Cc1ccc(-c2ccc(C#N)s2)cc1NS(=O)(=O)c1ccc2c(c1)OCO2` [Example 114, N-(5-(5-cyanothiophen-2-yl)-2-methylphenyl)benzo[d][1,3]dioxole-5-sulfonamide]: the EC50 (with MCF7 cells (Homo sapiens); in assay [2]) was < 500 nM in each case.

In the case of `Cc1ccc(-c2ccc(C#N)cc2)cc1NS(=O)(=O)c1ccc(N(C)C)cc1` [Example 115, N-(4′-cyano-4-methylbiphenyl-3-yl)-4-(dimethylamino)benzenesulfonamide], the EC50 with MCF7 cells (Homo sapiens) was < 500 nM.

The compound `Cc1ccc(-c2ccc(C#N)s2)cc1NS(=O)(=O)c1ccc(C#N)cc1` [Example 116, 4-cyano-N-(5-(5-cyanothiophen-2-yl)-2-methylphenyl)benzenesulfonamide] gave an EC50 with MCF7 cells (Homo sapiens) of 500 to 1000 nM.

For “N-[5-(5-Cyano-pyridin-3-yl)-2-methyl-phenyl]-4-methoxy-benzenesulfonamide [Example 74]”, the EC50 with MCF7 cells is < 500 nM.
